# Assay: Human HepG2 cell viability assay in 384 well format
# Assay type: toxicity, cell-based
# Set-up: dose 125 nL, time 70.5 hour; cytotoxicity at 70.5 h: concentration not given beside the values
# Settings: HepG2 cells, read-out: Inhibition
row,Compound,cytotoxicity at 70.5 h [%]
1,CC(NC(=O)Nc1cccnc1N1CCOCC1)c1ccncc1 (configuration not stated),6.43
2,COC[C@@]12CCC[C@@H]1CN(C(=O)Cc1ccco1)C2,-5.39
3,CN(C)C1CCCN(C(=O)NCCC(C)(C)C)C1 (configuration not stated),16.4
4,CC(=O)Nc1nc(C(=O)NCc2ccc(N3CCOC(C)C3)nc2)cs1 (configuration not stated),-7.71
5,O=C1CCc2cc(NC(=O)N3CCCN(Cc4cccs4)CC3)ccc21,-8.02
6,O=C1COC2(CCN(c3cccc(F)c3)CC2)CN1Cc1ccccn1,0.382
7,O=C(NC1CC1)N1Cc2[nH]nc(COc3cccnc3)c2C1,-6.87
8,Cn1cc(C2=CCN(CCCOc3ccc(C(N)=O)cc3)CC2)cn1,-11.2
9,COc1ncnc2c1CCN(Cc1cccc(C)n1)CC2,5.99
10,COc1ccc(CSc2nnc(N)n2C2CC2)cc1Cl,-8.32
11,O=C(COCC(F)(F)F)Nc1nncs1,10.8
12,NC(=O)C1CCCN(c2ncnc3c2Cc2ccccc2OC3)C1 (configuration not stated),19
13,Cc1nc(C)n(C2CCCN(C(=O)c3cscn3)C2)n1 (configuration not stated),-2.85
14,Cc1ccc([C@@H]2CN(C(=O)c3cc[nH]c3)C[C@H]2NC(=O)C2CC2)cc1,-10.7
15,CNc1cc(C)nc(N2CCN(Cc3ccccc3)CC(O)C2)n1 (configuration not stated),-0.369
16,CCC(N)c1ccccc1OCC(=O)N1CCCC1 (configuration not stated),-7.75
17,Cc1cc(C)c(CNC(=O)N2CCC(N3CCNC3=O)CC2)c(C)c1,-7.95
18,COc1ccc(S(=O)(=O)NCC(O)c2sccc2C)cc1C (configuration not stated),-3.59
19,Cc1n[nH]c(C2CN(C(=O)c3ccon3)CCO2)n1 (configuration not stated),-10.2

row,Compound,cytotoxicity at 70.5 h [%]
1,Cc1cccc2cc(CN3CCC(O)(CN4CCCC4)CC3)c(=O)[nH]c12,-0.171
2,C=C(C)CN(CC)C(=O)c1cc(Cl)ccc1NS(C)(=O)=O,-0.344
3,CN(C)CC(=O)N1CCO[C@@H]2CC(COCc3ccncc3)C[C@H]21 (some centres not stated),-8
4,Cc1nc(-c2cnn(C)c2)sc1C(=O)NCc1ccc(C)n1C,-2.82
5,COC(=O)c1ccnn1COc1ccc(Cl)cc1,28.1
6,Cc1cccc(CNC2CCN(CCc3ccncc3)CC2)c1C,-3.09
7,O=C(c1cccnc1N1CCOCC1)N1CCCC(n2cncn2)C1 (configuration not stated),18.2
8,Cc1cc(CN(C)C(=O)c2ccc(OCC(F)(F)F)nc2)no1,0.93
9,CN(C)C(=O)Cn1c(C2CC2)c(CN2CCOCC2)c2cccnc21,-1.8
10,CCN(CC)Cc1ccc(C(=O)NC2CCc3cc(Br)ccc32)o1 (configuration not stated),-24.6
11,CCc1nccn1C1CCCN(C(=O)c2cc(C3CC3)on2)C1 (configuration not stated),-6.97
12,NC(=O)c1cc(C2CC2)nc2ccc(F)cc12,2.17
13,COCc1cnc2n1CCN(C(=O)c1ocnc1C)C2C (configuration not stated),10.1
14,CCNc1ncc(C(=O)NCc2ccc3nsnc3c2)cn1,0.938
15,Cc1ccccc1SC1CCN(C(=O)C2CNCC(=O)N2)CC1 (configuration not stated),-1.6
16,COCc1cccc(C(=O)N2CCCC2)c1,4.08
17,Cc1noc(C)c1-c1cccc(C2CN(S(=O)(=O)N(C)C)CCO2)n1 (configuration not stated),-3.96
18,Cc1nc(C)c(C)c(NCCSCc2[nH]cnc2C)n1,-5.17
19,CCOCCCNC(=O)N(C)Cc1ccc(SC)c(OC)c1,1.54

row,Compound,cytotoxicity at 70.5 h [%]
1,CC(C)c1cc(C(=O)N2CCN(c3ccncc3)CC2)n(C)n1,-11.9
2,Cc1cnn(CC2CC2)c1NC(=O)c1cccnc1O,14.4
3,COc1ccccc1OCCN(C)c1cc(C)nc(N)n1,18.7
4,Cc1nc(COCC2CN(C(N)=O)Cc3nccn3C2)cs1 (configuration not stated),-5.1
5,Cc1nccn1CCCn1cncc1-c1ccc2c(c1)CCCN2C,-5.52
6,NC(=O)Cn1cc(NC(=O)N2CCN(c3ccccc3)CC2)cn1,-12.6
7,Cc1csc(Nc2cc(C3CN(C(C)C)C3)nc(C)n2)n1,-3.73
8,COCC(=O)Nc1cnc(N2CCOCC2)nc1,-3.21
9,O=C1NCC2(CCCN(C(=O)c3c[nH]nc3C3CCCCC3)C2)O1 (configuration not stated),-10.2
10,Cc1cnc(C(=O)N2CCCC(n3nc(C)nc3C)C2)cn1 (configuration not stated),-11.1
11,CCn1cnnc1C1CCN(C(=O)c2cnc3ccccc3n2)CC1,-16.4
12,CCOc1ncccc1NC(=O)N1CCCC(CNC(N)=O)C1 (configuration not stated),-8.62
13,O=C1CCCN1Cc1ncn2c1CN(Cc1cccs1)CCC2,-1.34
14,O=C(O)C(c1cccc2c1OCC2)N1CCC(N2CCSCC2)CC1 (configuration not stated),0.963
15,O=C(Nc1nc2c(s1)CN(C(=O)NCc1cccs1)CC2)C1CC1,-9.79
16,Clc1cccc2c3c([nH]c12)CCN(Cc1cc2n(n1)CCCNC2)C3,35.7
17,CCc1cc(NC(=O)N2CCC(Oc3cccnc3)C2)n(C)n1 (configuration not stated),-6.65
18,O=C(Cn1ccc(C(=O)O)n1)Nc1c(Cl)cccc1Cl,-3.45
19,O=C(Cc1ccncc1)N1C[C@H]2CC[C@@H]1CN(Cc1cccnc1)C2,8.28

# — ChEMBL document CHEMBL3507680, “University of Dundee, Gates Library screen for HepG2 cell viability”
